From US20240287063A1, “METHIONINE ADENOSYLTRANSFERASE 2A INHIBITOR” (NANJING CHIA TAI TIANQING PHARMACEUTICAL CO., LTD., priority 2021, published 2024)
Structures can show the parent of a compound that is named as a salt.

Columns and labels:
[1] = test system: HCT116 MTAP−/− subcutaneous xenograft tumors; experiment: In vivo effect experiment of HCT116 MTAP−/− subcutaneous xenograft tumors in nude mice; conditions: 50 mg/kg daily intragastric
Procedure: Female Nu/Nu nude mice (6-8 weeks old, Beijing Vital River Laboratory Animal Technology Co., Ltd.) were raised in an SPF animal room at a temperature of 20° C.-25° C., relative humidity of 40%-70%, and light and dark lighting for 12 hours each; and animals can freely drink and eat. The animals were adaptively fed before experiment.
HCT116 MTAP^−/− cells (Horizon) were cultured in vitro for proliferation, cells in logarithmic growth phase were collected and resuspended in a serum-free RPMI-1640 medium, and the cell concentration was adjusted to 6.0×10^7 cells/mL; and 100 μL of the cell suspension was injected subcutaneously into the right anterior armpit of each nude mouse by using a 1 mL syringe, the status of the animals was observed regularly, and the growth of transplanted tumors was monitored regularly.
When the tumor volume reached 100-300 mm^3, animals with too large or too small tumor volume or uncertain tumor formation were eliminated, and tumor bearing mice with good health and similar tumor volume were selected and randomly grouped, 6 mice in each group; the administration group received daily intragastric administration (AG-270: 50 mg/kg, with a structure shown below; compound to be tested: 1-7.5 mg/kg); and the control group was intragastrically administrated with the same volume of blank solvent. In the administration period, the tumor diameter was measured twice a week, the tumor volume was calculated, the animals were weighed, and their weight was recorded.
A formula for calculating tumor volume (TV) is: Tv=½×a×b^2, wherein a represents long diameter of the tumor, and b represents short diameter of the tumor.
Experimental data is calculated and statistically processed by using Microsoft Office Excel 2007 software. Unless otherwise specified, the data were expressed as mean±standard error (Mean SEM), and t-test is used for comparison between two groups.
Growth curves of tumor volume in each group are shown in FIG. 1, results of SAM test in tumors of each group are shown in FIG. 2, and the mean tumor volume and SEM in each group are shown in Table 2 below: […]

MAT2A enzyme = target: T1, MAT2A enzyme (Homo sapiens, UniProt P31153); experiment: Enzymatic testing method for MAT2A (Biomol Green, OD620); assay type: biochemical; conditions: score by IC50 for inhibiting MAT2A; read-out: MAT2A inhibition score
T1 construct: purchased BPS 71401
T1 sequence (P31153 whole entry): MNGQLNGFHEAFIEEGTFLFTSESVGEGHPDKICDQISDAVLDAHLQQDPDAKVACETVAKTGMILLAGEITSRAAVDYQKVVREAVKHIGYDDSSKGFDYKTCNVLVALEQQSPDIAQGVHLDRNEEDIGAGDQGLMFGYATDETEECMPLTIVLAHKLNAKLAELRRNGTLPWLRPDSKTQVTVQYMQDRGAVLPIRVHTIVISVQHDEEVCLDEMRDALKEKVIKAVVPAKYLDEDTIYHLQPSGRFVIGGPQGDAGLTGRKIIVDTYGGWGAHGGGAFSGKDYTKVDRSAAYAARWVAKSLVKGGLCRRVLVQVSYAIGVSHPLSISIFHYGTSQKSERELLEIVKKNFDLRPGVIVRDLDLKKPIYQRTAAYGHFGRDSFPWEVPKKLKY
Procedure: • a) A 5×MAT2A test buffer (250 mM Tris-HCl, pH 8.0; 250 mM KCl; 75 mM MgCl2; 0.025% BSA; 0.05% Brij35; 1.5 mM EDTA) was first prepared and partially diluted to 1× for later use; • b) Preparation and addition of MAT2A enzyme (BPS, 71401): the MAT2A enzyme was prepared into 3.674 ng/L by using the 1×MAT2A test buffer (1.67×, final concentration 2.20 ng/L), a BioTek (MultiFlo FX) automatic liquid separator was used, 15 μL of 1.67×MAT2A enzyme solution was added to compound test wells and negative control wells respectively, and 15 μL of 1×MAT2A test buffer was added to blank control wells; • c) Preparation and addition of a compound: a compound to be tested was diluted with DMSO from 10 mM stock solution to 100 μM, a positive drug AGI-24512 was diluted under the same conditions, and the diluted compound and positive drug were automatically sprayed into each well by using a Tecan compound titrator (D300e) according to preset concentration gradients, where the spray volume was little and negligible. The concentration gradient was initially 1 μM, the dilution was implemented by ½ log, and a total of 8 gradients were set. Centrifugation at 2500 rpm for 30 s and incubation at 25° C. for 30 min were performed; • d) Preparation of ATP: 10 mM ATP (Sigma, A7699) was diluted with 1×MAT2A test buffer to 700 μM for later use; • e) Preparation and addition of a substrate and ATP mixture: 5×MAT2A test buffer, 3 μL/well; 750 μM L-methionine (Adamas, 01100469), 2.5 μL/well; 700 μM ATP, 2.5 μL/well; and double distilled water, 2 μL/well. A total amount of required mixture was prepared according to the number of test wells, and 10 μL of the mixture was added to each well by using the BioTek (MultiFlo FX) automatic liquid separator, followed by centrifugation at 2500 rpm for 30 s and reaction at 25° C. for 150 min; • f) Addition of Biomol Green detection reagent: 50 μL of Biomol Green (Enzo, BML-AK111) was added to each well by using the BioTek (MultiFlo FX) automatic liquid separator, followed by centrifugation at 2500 rpm for 30 s and incubation at 25° C. for 20 minutes; • g) After the reaction, OD620 values were read by using a Perkin Elmer (Envision 2105) multifunctional plate reader.
A formula for calculating an inhibition rate was as follows: […]
Wherein, • % Inhibition: inhibition rate % • ODsample: OD620 value in a sample well; • ODmin: representing a mean OD620 value of blank control wells without the enzyme or compound to be tested; • ODmax: representing a mean OD620 value of negative control wells with the enzyme and without the compound.
Then a dose-effect curve log(inhibitor) vs. response-Variable slope was fitted by usingGraphPad Prism 5 software to obtain an IC50 value of compound for MAT2A enzyme inhibition.

HCT116 MTAP −/− cells = experiment: Cell testing method: HCT116 MTAP-/- cell proliferation inhibition (CellTiter-Glo, 120 h); assay type: cell-based; conditions: Homo sapiens, HCT-116; score by IC50 for inhibiting HCT116 MTAP−/− cells
Procedure: HCT116 MTAP −/− cells (purchased from Horizon Discovery): human colorectal cancer cell lines with MTAP gene deletion were cultured in medium RPMI 1640+10% FBS (Fetal bovine serum). On day 0 of the experiment, the live cell density of the foregoing cells in logarithmic growth phase was adjusted to 5000 cells/ml, the cells were inoculated to a 96-well plate by an amount of 100 μl/well, and a blank group was set in parallel; and the inoculated cell plate was put into a 37° C., 5% CO2 incubator for overnight culture.
On day 1 of the experiment, the overnight cultured cell plate was taken out, the supernatant was discarded, 80 μl of serum-free RPMI 1640 medium was added to each well, and place the cells in an incubator for starvation cultivation for 4 h. The compound to be tested was dissolved in DMSO (dimethyl sulfoxide) to prepare a 10 mM compound stock solution. After starvation, the cell plate was taken out, and 80 μl of RPMI 1640+20% FBS medium was added to each well; the cell plate was placed on an automatic liquid dispenser D300e (Tecan), and a dosing program was set as follows: a maximum concentration of the compound to be tested was 30 μM, the compound was diluted with DMSO by a 3 times concentration gradient, there was a total of 10 concentrations, two duplicate wells were set for each concentration, and the DMSO final concentration in each well of the 96-well plate was 0.3%, v/v. The pre-prepared 10 mM stock solution of the compound to be tested was taken out, and the above dosing program was run for dosing. After the dosing was completed, the cell plate was placed in incubator and culture for 120 h.
On day 6 of the experiment, the cell plate was taken out, 50 μl of CellTiter-Go® (purchased from Promega) was added to each well, and fluorescence signal was measured on Envision (PerkinElmer) according to operation procedures in the manual.
A dose-effect curve: log(inhibitor) vs. response-Variable slope was fitted by using GraphPad Prism 5 software to obtain an IC50 value of the compound for inhibiting cell proliferation inhibition. A formula for calculating an inhibition rate was: […]
Wherein, • Signal value of tested compound: mean fluorescence signal of cells group+medium group+compound group; • Signal value of blank group: mean fluorescence signal of medium group; • Signal value of negative control group: mean fluorescence signal of cells group+medium group.

For `COc1ccc(-c2c(Nc3ccccn3)[nH]c3c(C4=CCCCC4)c(-c4ccccc4)nn3c2=O)cc1` [AG-270, reference compound], the “Tumor volume, mean volume” value ([1]; day 1 of administration) was 154 mm^3, the “Tumor volume, mean volume” value ([1]; day 4 of administration) was 189 mm^3 and the “Tumor volume, mean volume” value ([1]; day 6 of administration) was 219 mm^3. The “Tumor volume, mean volume” value ([1]; day 8 of administration) was 244 mm^3, the “Tumor volume, mean volume” value ([1]; day 11 of administration) was 303 mm^3 and the “Tumor volume, mean volume” value ([1]; day 13 of administration) was 369 mm^3. The “Tumor volume, mean volume” value ([1]; day 15 of administration) was 419 mm^3.
With `O=c1c(-c2ccc(OC(F)F)cc2)cn2ccc(C3CC3)cc2c1-c1ccc(OC(F)F)cc1` [Example 3, 8-cyclopropyl-1,3-bis(4-(difluoromethoxy)phenyl)-2H-quinolizin-2-one] the IC50 (MAT2A enzyme) was less than 50 nM and the IC50 (HCT116 MTAP −/− cells) was less than 150 nM.
Work on `CCOc1ccn2cc(-c3ccc(OC(F)F)cc3)c(=O)c(-c3ccc(OC(F)F)cc3)c2c1` [Example 4] yielded an IC50 (MAT2A enzyme) of less than 50 nM and an IC50 (HCT116 MTAP −/− cells) of less than 150 nM.
`Cn1nc2ccc(-c3cn4ccc(C5CC5)cc4c(-c4ccc5c(c4)OC(F)(F)O5)c3=O)cc2c1N` [Example 6, 3-(3-amino-2-methyl-2H-indazol-5-yl)-8-cyclopropyl-1-(2,2-difluoro-1,3-benzodioxol-5-yl) quinolizin-2-one hydrochloride] gave an IC50 (MAT2A enzyme) of less than 50 nM and an IC50 (HCT116 MTAP −/− cells) of 150 to 400 nM.
For `Cn1nccc1-c1c2cc(-c3cn4ccc(C5CC5)cc4c(-c4ccc5c(c4)OC(F)(F)O5)c3=O)ccc2nn1C` [Example 7, 8-cyclopropyl-1-(2,2-difluoro-1,3-benzodioxol-5-yl)-3-[2-methyl-3-(2-methylpyrazol-3-yl)indazol-5-yl]quinolizin-2-one], the IC50 (MAT2A enzyme) was less than 50 nM and the IC50 (HCT116 MTAP −/− cells) was 400 to 1000 nM.
In the case of `Cn1cc2cc(-c3cn4ccc(NCC(F)(F)F)nc4c(-c4ccc(OC(F)F)cc4)c3=O)ccc2n1` [Example 9, 9-[4-(difluoromethoxy)phenyl]-7-(2-methyl-2H-indazol-5-yl)-2-[(2,2,2-trifluoroethyl)amino]-8H-pyrido[1,2-a]pyrimidin-8-one], the IC50 (MAT2A enzyme) is reported as less than 50 nM and the IC50 (HCT116 MTAP −/− cells) is reported as less than 150 nM.
Compound `O=c1c(-c2ccc(OC(F)F)cc2)cn2ccc(NCC(F)(F)F)nc2c1-c1ccc(OC(F)F)cc1` [Example 10, 7,9-bis[4-(difluoromethoxy)phenyl]-2-[(2,2,2-trifluoroethyl)amino]-8H-pyrido[1,2-a]pyrimidin-8-one] has an IC50 (MAT2A enzyme) of less than 50 nM and an IC50 (HCT116 MTAP −/− cells) of less than 150 nM.
Work on `COc1ccc(-c2cn3ccc(NCC(F)(F)F)nc3c(-c3ccc(OC)cc3)c2=O)cc1` [Example 11, 7,9-bis[(4-methoxyphenyl)]-2-[(2,2,2-trifluoroethyl)amino]-8H-pyrido[1,2-a]pyrimidin-8-one] yielded an IC50 (MAT2A enzyme) of less than 50 nM and an IC50 (HCT116 MTAP −/− cells) of less than 150 nM.
Work on `Cn1cc2cc(-c3cn4ccc(NCC(F)(F)F)nc4c(-c4ccc5nn(C)cc5c4)c3=O)ccc2n1` [Example 12, 7,9-bis[(2-methyl-2H-indazol-5-yl)]-2-[(2,2,2-trifluoroethyl)amino]-8H-pyrido[1,2-a]pyrimidin-8-one] yielded an IC50 (MAT2A enzyme) of less than 50 nM and an IC50 (HCT116 MTAP −/− cells) greater than 1000 nM.
`CN1C(=O)c2c3cc(-c4cn5ccc(NCC(F)(F)F)nc5c(-c5ccc(OC(F)F)cc5)c4=O)ccc3nn2CC12CC2` [Example 15, 9′-{9-[4-(difluoromethoxy)phenyl]-8-oxo-2-[(2,2,2-trifluoroethyl)amino]pyrido[1,2-a]pyrimidin-7-yl}-2′-methyl-4′H-spiro[cyclopropane-1,3′-pyrazino[1,2-b]indazol]-1′-one] showed an IC50 (MAT2A enzyme) of less than 50 nM and an IC50 (HCT116 MTAP −/− cells) of 400 to 1000 nM.
With `O=C1Cn2nc3ccc(-c4cn5ccc(NCC(F)(F)F)nc5c(-c5ccc(OC(F)F)cc5)c4=O)cc3c2C2(CC2)N1` [Example 16, 9′-{9-[4-(difluoromethoxy)phenyl]-8-oxo-2-[(2,2,2-trifluoroethyl)amino]pyrido[1,2-a]pyrimidin-7-yl}-2′,4′-dihydrospiro[cyclopropane-1,1′-pyrazino[1,2-b]indazol]-3′-one] the IC50 (MAT2A enzyme) was less than 50 nM and the IC50 (HCT116 MTAP −/− cells) was 400 to 1000 nM.
`Cn1cc2cc(-c3cn4ccc(NCC(F)(F)F)nc4c(-c4ccc5c(c4)OC(F)(F)O5)c3=O)ccc2n1` [Example 20, 9-(2,2-difluoro-1,3-benzodioxol-5-yl)-7-(2-methyl-2H-indazol-5-yl)-2-[(2,2,2-trifluoroethyl)amino]-8H-pyrido[1,2-a]pyrimidin-8-one] gave an IC50 (MAT2A enzyme) of less than 50 nM and an IC50 (HCT116 MTAP −/− cells) of less than 150 nM.
`O=c1c(-c2ccc(OC(F)F)cc2)cn2ccc(OCC(F)(F)F)nc2c1-c1ccc(OC(F)F)cc1` [Example 24, 7,9-bis[4-(difluoromethoxy)phenyl]-2-(2,2,2-trifluoroethoxy)-8H-pyrido[1,2-a]pyrimidin-8-one] gave an IC50 (MAT2A enzyme) of less than 50 nM and an IC50 (HCT116 MTAP −/− cells) of less than 150 nM.
In the case of `COc1cc(-c2cn3ccc(C4CC4)nc3c(-c3ccc(OC(F)F)c(OC)c3)c2=O)ccc1OC(F)F` [Example 37, 2-cyclopropyl-7,9-bis(4-(difluoromethoxy)-3-methoxyphenyl)-8H-pyrido[1,2-a]pyrimidin-8-one], the IC50 (MAT2A enzyme) is reported as 50 to 200 nM.
With `O=c1c(-c2ccc(OC(F)F)cc2)cn2c(C3CC3)ccnc2c1-c1ccc(OC(F)F)cc1` [Example 40, 4-cyclopropyl-7,9-bis[4-(difluoromethoxy)phenyl]-8H-pyrido[1,2-a]pyrimidin-8-one] the IC50 (MAT2A enzyme) was greater than 1000 nM.
